Source: US20050090522A1 (priority 2001, published 2005)

test system: HIV-1; experiment: HIV-1 single-round infectious luciferase reporter virus (pseudotype) assay in HeLa CD4 CCR5 cells; format: cell-based; details: Human immunodeficiency virus 1, HeLa-CD4/CCR5, read-out: EC50 Group from TABLE 1, HeLa CD4 CCR5 cells, single-round infectious luciferase reporter virus
Summary of the method: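 HeLa CD4 CCR5 cells (5×10^4/well, DMEM + 10% FBS) were treated with compound (final <10 μM) and infected with single-round luciferase reporter virus made in 293 cells, at MOI ~0.01. Luciferase was read 72 h post infection. EC50 came from 10-concentration percent-inhibition curves fitted to a four-parameter logistic model.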

Compound	EC50
C[C@@H]1CN(C(=O)c2ccccc2)CCN1C(=O)C(=O)c1c[nH]c2c(-c3cccc(N)n3)nccc12 [Example 112, (R)-1-benzoyl-3-methyl-4-[(7-(2-amino-pyridin-6-yl)-6-azaindol-3-yl)-oxoacetyl]piperazine]	< 1 µM
C[C@@H]1CN(C(=O)c2ccccc2)CCN1C(=O)C(=O)c1c[nH]c2c(-c3ccc(N)nc3)nccc12 [Example 113, (R)-1-benzoyl-3-methyl-4-[(7-(2-amino-pyridin-5-yl)-6-azaindol-3-yl)-oxoacetyl]piperazine]	< 1 µM
C[C@@H]1CN(C(=O)c2ccccc2)CCN1C(=O)C(=O)c1c[nH]c2c(-c3ccc(N)cn3)nccc12 [Example 114, (R)-1-benzoyl-3-methyl-4-[(7-(5-amino-pyridin-2-yl)-6-azaindol-3-yl)-oxoacetyl]piperazine]	< 1 µM
CNc1cnc(-c2ncc(OC)c3c(C(=O)C(=O)N4CCN(C(=O)c5ccccc5)CC4)c[nH]c23)cn1 [Example 115, 1-benzoyl-4-[(4-methoxy-7-(2-methylamino-pyrazin-5-yl)-6-azaindol-3-yl)-oxoacetyl]piperazine]	< 1 µM
COc1cnc(-c2cnc(N3CCCC3=O)s2)c2[nH]cc(C(=O)C(=O)N3CCN(C(=O)c4ccccc4)CC3)c12 [Example 116, 1-benzoyl-4-[(4-methoxy-7-((2-pyrrolidinon-1-yl)-thiazol-5-yl)-6-azaindol-3-yl)-oxoacetyl]piperazine]	< 1 µM
COc1ncc(-c2ncc(OC)c3c(C(=O)C(=O)N4CCN(C(=O)c5ccccc5)CC4)c[nH]c23)cn1 [Example 117, 1-benzoyl-4-[(4-methoxy-7-(2-methoxy-pyrmdin-5-yl)-6-azaindol-3-yl)-oxoacetyl]piperazine]	< 1 µM
COc1cnc(-c2cnc(-n3cccc3)nc2)c2[nH]cc(C(=O)C(=O)N3CCN(C(=O)c4ccccc4)CC3)c12 [Example 118, 1-benzoyl-4-[(4-methoxy-7-(2-(pyrrol-1-yl)-pyrimidin-5-yl)-6-azaindol-3-yl)-oxoacetyl]piperazine]	< 1 µM
COc1cnc(-c2cccnn2)c2[nH]cc(C(=O)C(=O)N3CCN(C(=O)c4ccccc4)CC3)c12 [Example 120, 1-benzoyl-4-[(4-methoxy-7-(pyridazin-3-yl)-6-azaindol-3-yl)-oxoacetyl]piperazine]	< 1 µM
C[C@@H]1CN(C(=O)c2ccccc2)CCN1C(=O)C(=O)c1c[nH]c2c(-c3cncc(O)n3)nccc12 [Example 121]	< 1 µM
C[C@@H]1CN(C(=O)c2ccccc2)CCN1C(=O)C(=O)c1c[nH]c2c(-c3ccc(O)nc3)nccc12 [Example 122]	< 1 µM
C[C@@H]1CN(C(=O)c2ccccc2)CCN1C(=O)C(=O)c1c[nH]c2c(-c3cccc(O)n3)nccc12 [Example 123]	< 1 µM
C[C@@H]1CN(C(=O)c2ccccc2)CCN1C(=O)C(=O)c1c[nH]c2c(-c3ccc(O)cn3)nccc12 [Example 124]	< 1 µM
O=C(C(=O)N1CCN(C(=O)c2ccccc2)CC1)c1c[nH]c2c(-c3ccncn3)ncc(F)c12 [Example 125]	< 1 µM
COc1cnc(-c2cn(C)c(=O)cn2)c2[nH]cc(C(=O)C(=O)N3CCN(C(=O)c4ccccc4)CC3)c12 [Example 138, 1-(benzoyl)-4-[(4-methoxy-7-(1-methylpyrazin-2-on-5-yl)-6-azaindol-3-yl)-oxoacetyl]piperazine]	< 1 µM
C[C@@H]1CN(C(=O)c2ccccn2)CCN1C(=O)C(=O)c1c[nH]c2c(-c3cnccn3)ncc(F)c12 [Example 141]	< 1 µM
Nc1cnc(-c2ncc(Cl)c3c(C(=O)C(=O)N4CCN(C(=O)c5ccccc5)CC4)c[nH]c23)cn1 [Example 143]	< 1 µM
O=C(C(=O)N1CCN(C(=O)c2ccccc2)CC1)c1c[nH]c2c(-c3cncnc3)ncc(Cl)c12 [Example 144]	< 1 µM
O=C(Nc1cccnc1)c1ncc(F)c2c(C(=O)C(=O)N3CCN(C(=O)c4ccccc4)CC3)c[nH]c12 [Example 147]	< 1 µM

Compound	EC50
O=C(C(=O)N1CCN(C(=O)c2ccccc2)CC1)c1c[nH]c2c(-c3c[nH]c(=O)cn3)ncc(Cl)c12 [Example 149]	< 1 µM
C[C@@H]1CN(C(=O)c2ccccc2)CCN1C(=O)C(=O)c1c[nH]c2c(-c3cnc(N)cn3)nccc12 [Example 150, (R)-1-benzoyl-3-methyl-4-[(7-(5-amino-pyrazin-2-yl)-6-azaindol-3-yl)-oxoacetyl]piperazine]	< 1 µM
COc1cnc(-c2cncs2)c2[nH]cc(C(=O)C(=O)N3CCN(C(=O)c4ccccn4)CC3)c12 [Example 151, 1-picolinoyl-4-[(4-methoxy-7-(thiazol-5-yl)-6-azaindol-3-yl)-oxoacetyl]piperazine]	< 1 µM
O=C(Nc1cccnc1)c1ncc(Cl)c2c(C(=O)C(=O)N3CCN(C(=O)c4ccccc4)CC3)c[nH]c12 [Example 152]	< 1 µM
C[C@@H]1CN(C(=O)c2ccccc2)CCN1C(=O)C(=O)c1c[nH]c2c(-c3cnc(N)nc3)nccc12 [Example 153, (R)-1-benzoyl-3-methyl-4-[(7-(2-amino-pyrimidin-5-yl)-6-azaindol-3-yl)-oxoacetyl]piperazine]	< 1 µM
O=C(C(=O)N1CCN(C(=O)c2ccccc2)CC1)c1c[nH]c2c(-c3cccnn3)ncc(F)c12 [Example 154]	< 1 µM
COc1cnc(C2=NC(C)(C)CO2)c2[nH]cc(C(=O)C(=O)N3CCN(C(=O)c4ccccc4)CC3)c12 [Example 156]	< 1 µM
C[C@@H]1CN(C(=O)c2ccccc2)CCN1C(=O)C(=O)c1c[nH]c2c(-c3cnc(O)cn3)nccc12 [Example 157]	< 1 µM
C[C@@H]1CN(C(=O)c2ccccc2)CCN1C(=O)C(=O)c1c[nH]c2c(-c3cnc(O)nc3)nccc12 [Example 162]	< 1 µM
C[C@@H]1CN(C(=O)c2ccccc2)CCN1C(=O)C(=O)c1c[nH]c2c(-c3ccc(C(=O)O)cc3)nccc12 [Example 164]	< 1 µM
CC(C)(C)OC(=O)N1CCN(C(=O)C(=O)c2c[nH]c3c(-c4cnccn4)ncc(Cl)c23)CC1 [Example 165]	< 1 µM
O=C(C(=O)N1CCN(C(=O)c2ccc(Br)o2)CC1)c1c[nH]c2c(-c3ncon3)ncc(F)c12 [Example 167]	< 1 µM
COc1cnc(-c2cnc(NC(=O)c3ccncc3)s2)c2[nH]cc(C(=O)C(=O)N3CCN(C(=O)c4ccccc4)CC3)c12 [Example 169]	< 1 µM
COc1cnc(-c2cnc(C)nc2)c2[nH]cc(C(=O)C(=O)N3CCN(C(=O)c4ccccc4)CC3)c12 [Example 171, 1-benzoyl-4-[(4-methoxy-7-(2-methyl-pyrimidin-5-yl)-6-azaindol-3-yl)-oxoacetyl]piperazine]	< 1 µM
COc1cnc(-c2ccc3[nH]ccc3c2)c2[nH]cc(C(=O)C(=O)N3CCN(C(=O)c4ccccn4)CC3)c12 [Example 172, 1-picolinoyl-4-[(4-methoxy-7-(indol-5-yl)-6-azaindol-3-yl)-oxoacetyl]piperazine]	< 1 µM
COc1cnc(-c2cscn2)c2[nH]cc(C(=O)C(=O)N3CCN(C(=O)c4ccccn4)CC3)c12 [Example 173, 1-picolinoyl-4-[(4-methoxy-7-(thiazol-4-yl)-6-azaindol-3-yl)-oxoacetyl]piperazine]	< 1 µM
COc1cnc(-c2cscn2)c2[nH]cc(C(=O)C(=O)N3CCN(C(=O)c4ccccc4)CC3)c12 [Example 174, 1-benzoyl-4-[(4-methoxy-7-(thiazol-4-yl)-6-azaindol-3-yl)-oxoacetyl]piperazine]	< 1 µM

same assay, conditions: Human immunodeficiency virus 1, HeLa-CD4/CCR5, read-out: EC50 Group from Table 1, Table 4; HeLa CD4 CCR5 cells, single-round luciferase reporter virus

Compound	EC50
C[C@@H]1CN(C(=O)c2ccccc2)CCN1C(=O)C(=O)c1c[nH]c2c(-c3ncco3)ccnc12 [Example 126]	< 1 µM
C[C@@H]1CN(C(=O)c2ccccc2)CCN1C(=O)C(=O)c1c[nH]c2c(-c3cc4ccccc4s3)ccnc12 [Example 127]	< 1 µM
C[C@@H]1CN(C(=O)c2ccccc2)CCN1C(=O)C(=O)c1c[nH]c2c(-c3cccs3)ccnc12 [Example 128]	< 1 µM
C[C@@H]1CN(C(=O)c2ccccc2)CCN1C(=O)C(=O)c1c[nH]c2c(-c3ccsc3)ccnc12 [Example 129]	< 1 µM
Cc1noc(C)c1-c1ccnc2c(C(=O)C(=O)N3CCN(C(=O)c4ccccc4)C[C@H]3C)c[nH]c12 [Example 130]	< 1 µM
O=C(C(=O)N1CCN(C(=O)c2ccccc2)CC1)c1c[nH]c2c(-c3nccs3)ccnc12 [Example 131]	< 1 µM
CC(=O)c1ccc(-c2ccnc3c(C(=O)C(=O)N4CCN(C(=O)c5ccccc5)CC4)c[nH]c23)s1 [Example 132]	< 1 µM
O=Cc1ccc(-c2ccnc3c(C(=O)C(=O)N4CCN(C(=O)c5ccccc5)CC4)c[nH]c23)s1 [Example 133]	< 1 µM
Cc1csc(-c2ccnc3c(C(=O)C(=O)N4CCN(C(=O)c5ccccc5)CC4)c[nH]c23)c1 [Example 134]	< 1 µM
C[C@@H]1CN(C(=O)c2ccccc2)CCN1C(=O)C(=O)c1c[nH]c2c(C(=O)NCc3ccc(C(F)(F)F)cc3)ccnc12 [Example 135, (R)-1-benzoyl-3-methyl-4-[(7-(4-trifluoromethylbenzylarmino)carbonyl-4-azaindol-3-yl)-oxoacetyl]piperazine]	< 1 µM
Cc1csc(NC(=O)c2ccnc3c(C(=O)C(=O)N4CCN(C(=O)c5ccccc5)C[C@H]4C)c[nH]c23)n1 [Example 136, (R)-1-benzoyl-3-methyl-4-[(7-(4-methylthiazol-2-yl)aminocarbonyl-4-azaindol-3-yl)-oxoacetyl]piperazine]	< 1 µM
C[C@@H]1CN(C(=O)c2ccccc2)CCN1C(=O)C(=O)c1c[nH]c2c(C(=O)Nc3nccs3)ccnc12 [Example 137, (R)-1-benzoyl-3-methyl-4-[(7-(thiazol-2-yl)aminocarbonyl-4-azaindol-3-yl)-oxoacetyl]piperazine]	< 1 µM
C[C@@H]1CN(C(=O)c2ccccc2)CCN1C(=O)C(=O)c1c[nH]c2c(C(=O)c3cccs3)ccnc12 [Example 168, 1-benzoyl-3-(R)-methyl-4-[(7-(2-thienylcarbonyl)-4-azaindol-3-yl)-oxoacetyl]piperazine]	< 1 µM
